Among the data in ChEMBL document CHEMBL1125475, “Preferred antagonist binding state of the NMDA receptor: synthesis, pharmacology, and computer modeling of (phosphonomethyl)phenylalanine derivatives” (1992) are Inhibition values, retold here.

For orientation: Inhibition means the drop in the measured response relative to a control, in per cent. A high value points to a response far below the control.

Common to all, as to type: functional
Assay [1] is filed under the species Mus musculus. In words: Antagonistic activity of 100 uM of compound against electrophysiological responses induced by NMDA (10 uM) in culture mouse cortical neurons.
The species entered for assay [2] is Mus musculus. The assay can be described thus: Tested for antagonistic activity against electrophysiological responses induced by NMDA (10 uM) in culture mouse cortical neurons at 100 uM.
Assay [3] is filed under the species Mus musculus. The assay can be described thus: Tested for antagonistic activity against electrophysiological responses induced by NMDA (10 uM) in culture mouse cortical neurons at 10 uM.
The species entered for assay [4] is Mus musculus. The assay can be described thus: Antagonistic activity of 10 uM of compound against electrophysiological responses induced by NMDA (10 uM) in culture mouse cortical neurons.

Molecules are shown by their SMILES.

On to `NC(Cc1ccc(CP(=O)(O)O)cc1)C(=O)O` (centres undefined), for which the Inhibition in assay [1] turned out to be 0%.

Consider `NC(CCCP(=O)(O)O)C(=O)O` (centres undefined), for which the values for the Inhibition in assay [2] and in assay [3] were 100% and 68%, respectively.

Consider `NC(Cc1ccccc1CP(=O)(O)O)C(=O)O` (centres undefined), for which the Inhibition in assay [1] is on record as 87%; in assay [4] it was 40%.

For the compound `NC(Cc1cccc(CC(=O)NO)c1)C(=O)O` (centres undefined), the Inhibition in assay [2] came to 12%.

The compound `NC(CC1CCCCC1CS(=O)(=O)[O-])C(=O)O.[Na+]` (centres undefined) showed an Inhibition in assay [1] of 50%.

As for `NC(Cc1cccc(CP(=O)(O)O)c1)C(=O)O` (centres undefined), the Inhibition in assay [1] turned out to be 100%; in assay [4], 80%.

`NC(CC1CCCC(CS(=O)(=O)[O-])C1)C(=O)O.[Na+]` (centres undefined) yielded an Inhibition in assay [1] of 50%.

`NC(CC1CCCC(CP(=O)(O)O)C1)C(=O)O` (centres undefined): the Inhibition in assay [1] is 90%; in assay [4], 34%.

`NC(CC1CCC(CP(=O)(O)O)CC1)C(=O)O` (centres undefined): in assay [1], the Inhibition amounted to 18%.

Compound `NC(CC1CCC(CS(=O)(=O)[O-])CC1)C(=O)O.[Na+]` (centres undefined) had an Inhibition in assay [1] of 20%.

For the compound `NC(Cc1ccc(CS(=O)(=O)[O-])cc1)C(=O)O.[Na+]` (centres undefined), the Inhibition in assay [1] amounted to 0%.

`NC(CC1CCCCC1CP(=O)(O)O)C(=O)O` (centres undefined) gave an Inhibition in assay [1] of 75%.

On to `NC(Cc1ccccc1CS(=O)(=O)[O-])C(=O)O.[Na+]` (centres undefined), for which the Inhibition in assay [1] was determined as 22%.

`NC(Cc1cccc(CS(=O)(=O)[O-])c1)C(=O)O.[Na+]` (centres undefined): the Inhibition in assay [1] was 0%.

The compound `NC(Cc1cccc(CC(=O)O)c1)C(=O)O` (centres undefined) showed an Inhibition in assay [1] of 31%.
